Like-named read-outs stand apart in the source and are kept apart here.
What was measured:
[1] = tested on: P. falciparum 3D7 parasites; test: P. falciparum growth inhibition assay, 1-cycle (72 h treatment), SYBR DNA staining (library screen at 2 μg/mL and dose-response); type: cell-based, Plasmodium falciparum; details: for activity at 2 µg/mL: Plasmodium falciparum
[2] = tested on: T. gondii RH strain (RH-Tub-eYFP) tachyzoites; test: microbe, parasite or virus in culture; type: cell-based, Toxoplasma gondii; details: 72 h; for percent parasite growth at 2 µg/mL: Toxoplasma gondii
[3] = tested on: P. falciparum 3D7 parasites; test: P. falciparum growth inhibition assay, 2-cycle (120 h treatment), delayed-death screen and dose-response; type: cell-based, Plasmodium falciparum; details: for activity at 2 µg/mL: Plasmodium falciparum
[4] = P. falciparum 3D7, 72 h, parasite screen at 2 μg/mL, % growth, replicate 1
[5] = P. falciparum 3D7, 72 h, parasite screen at 2 μg/mL, % growth, replicate 2
[6] = T. gondii, parasite screen at 2 μg/mL, % growth, replicate 1
[7] = T. gondii, parasite screen at 2 μg/mL, % growth, replicate 2
[8] = P. falciparum 3D7, 120 h, parasite screen at 2 μg/mL, % growth, replicate 1
[9] = P. falciparum 3D7, 120 h, parasite screen at 2 μg/mL, % growth, replicate 2
[10] = library screen at 2 μg/mL, 72 h, % growth, replicate 1
[11] = library screen at 2 μg/mL, 72 h, % growth, replicate 2
[12] = library screen at 2 μg/mL, % growth, replicate 1
[13] = library screen at 2 μg/mL, % growth, replicate 2
[14] = library screen at 2 μg/mL, 120 h, % growth, replicate 1
[15] = library screen at 2 μg/mL, 120 h, % growth, replicate 2
[16] = T. gondii, 2 μg/mL, values are growth (% of control)

CO[C@@H]1[C@@H](OC(N)=O)[C@@H](O)[C@H](Oc2ccc3c(O)c(NC(=O)c4ccc(O)c(CC=C(C)C)c4)c(=O)oc3c2C)OC1(C)C [BIA-N1306]
Pf_72h_%Growth_Rep1 [1, 4]: 77.54%
Pf_72h_%Growth_Rep2 [1, 5]: 85.29%
Tg_72h_%Growth_Rep1 [2, 6]: 9.17%
Tg_72h_%Growth_Rep2 [2, 7]: 93.65%
Pf_120h_%Growth_Rep1 [3, 8]: 15.07%
Pf_120h_%Growth_Rep2 [3, 9]: 13.28%

COc1cccc2oc3c4c(cc(OC)c3c(=O)c12)O[C@H]1OC=C[C@@H]41 [BIA-M1214]
Pf_72h_%Growth_Rep1 [1, 4]: 80.14%
Pf_72h_%Growth_Rep2 [1, 5]: 43.63%
Tg_72h_%Growth_Rep1 [2, 6]: 111.85%
Tg_72h_%Growth_Rep2 [2, 7]: 93.41%
Pf_120h_%Growth_Rep1 [3, 8]: 94.17%
Pf_120h_%Growth_Rep2 [3, 9]: 84.03%

Cc1cc(O)c(C)c(O)c1C(=O)O [BIA-M1661]
Pf_72h_%Growth_Rep1 [1, 4]: 76.46%
Pf_72h_%Growth_Rep2 [1, 5]: 83.29%
Tg_72h_%Growth_Rep1 [2, 6]: 153.94%
Tg_72h_%Growth_Rep2 [2, 7]: 85.55%
Pf_120h_%Growth_Rep1 [3, 8]: 67.73%
Pf_120h_%Growth_Rep2 [3, 9]: 68.25%

CC(C)c1ncc(Cc2ccccc2)[nH]c1=O [Aureusimine B]
Pf_72h_%Growth_Rep1 [1, 10]: 102.22%
Pf_72h_%Growth_Rep2 [1, 11]: 85.03%
Tg_72h_%Growth_Rep1 [2, 12]: 82.28%
Tg_72h_%Growth_Rep2 [2, 13]: 99.21%
Pf_120h_%Growth_Rep1 [3, 14]: 140.97%
Pf_120h_%Growth_Rep2 [3, 15]: 94.84%

CN(C)c1ccc(O)c2c1C[C@H]1C[C@H]3[C@H](N(C)C)C(O)=C(C(N)=O)C(=O)[C@@]3(O)C(O)=C1C2=O.Cl [BIA-M1472]
Pf_72h_%Growth_Rep1 [1, 4]: 19.15%
Pf_72h_%Growth_Rep2 [1, 5]: 16.74%
Tg_72h_%Growth_Rep1 [2, 6]: 5.81%
Tg_72h_%Growth_Rep2 [2, 7]: 37.51%
Pf_120h_%Growth_Rep1 [3, 8]: 1.23%
Pf_120h_%Growth_Rep2 [3, 9]: 73.75%

CCCC[C@H]1C(=O)O[C@H](C)[C@H](NC(=O)c2cccc(NC=O)c2O)C(=O)O[C@@H](C)[C@@H]1OC(=O)CC(C)C [Antimycin A3]
activity at 2 µg/mL ([1]; 3D7, 72 h, library screen at 2 μg/mL, 72 h, % growth, replicate 1, read-out: Pf_72h_%Growth_Rep1): 47.1%
activity at 2 µg/mL ([1]; 3D7, 72 h, library screen at 2 μg/mL, 72 h, % growth, replicate 2, read-out: Pf_72h_%Growth_Rep2): 38.8%
Mean ([2]; T. gondii, 2 μg/mL, mean of both replicates, growth (% of control)): 21.56
Replicate 1 [2, 16]: 30.27
Replicate 2 [2, 16]: 12.84
percent parasite growth at 2 µg/mL ([2]; library screen at 2 μg/mL, % growth, replicate 1, read-out: Tg_72h_%Growth_Rep1): 30.3%
percent parasite growth at 2 µg/mL ([2]; library screen at 2 μg/mL, % growth, replicate 2, read-out: Tg_72h_%Growth_Rep2): 12.8%
activity at 2 µg/mL ([3]; 3D7, 120 h, library screen at 2 μg/mL, 120 h, % growth, replicate 1, read-out: Pf_120h_%Growth_Rep1): 45.4%
activity at 2 µg/mL ([3]; 3D7, 120 h, library screen at 2 μg/mL, 120 h, % growth, replicate 2, read-out: Pf_120h_%Growth_Rep2): 32%

CC[C@H](C)[C@H]1O[C@]2(C=C[C@@H]1C)C[C@@H]1C[C@@H](C/C=C(\C)[C@@H](O[C@H]3C[C@H](OC)[C@@H](O[C@H]4C[C@H](OC)[C@H](NC(C)=O)[C@H](C)O4)[C@H](C)O3)[C@@H](C)/C=C/C=C3\CO[C@@H]4[C@H](O)C(C)=C[C@@H](C(=O)O1)[C@]34O)O2 [Eprinomectin B1a, reference compound]
1) Growth (%) at 72 h ([1]; P. falciparum, 2 μg/mL, 72 h): 42.60%
Pf_72h_%Growth_Rep1 [1, 10]: 53.90%
Pf_72h_%Growth_Rep2 [1, 11]: 31.29%
Tg_72h_%Growth_Rep1 [2, 12]: 139.55%
Tg_72h_%Growth_Rep2 [2, 13]: 101.56%
3) Fold change (72 h/120 h) [3]: 2.2
2) Growth (%) at 120 h ([3]; P. falciparum, 2 μg/mL, 120 h): 19.45%
Pf_120h_%Growth_Rep1 [3, 14]: 26.03%
Pf_120h_%Growth_Rep2 [3, 15]: 12.86%

C[C@@H]1C[C@@H]([C@H](O)CC2CC(=O)NC(=O)C2)C(=O)[C@@H](C)C1 [cycloheximide, reference compound]
activity in the screen against P. falciparum ([1]; 2 μg/mL, 72 h, active = ≥80 % growth inhibition): active
activity at 2 µg/mL ([1]; 3D7, P. falciparum, 72 h, screen at 2 μg/mL, replicate 1, read-out: Pf_72h_%Growth_Rep1): 1.07%
activity at 2 µg/mL ([1]; 3D7, P. falciparum, 72 h, screen at 2 μg/mL, replicate 2, read-out: Pf_72h_%Growth_Rep2): 4.34%
percent parasite growth at 2 µg/mL ([2]; T. gondii, screen at 2 μg/mL, replicate 1, read-out: Tg_72h_%Growth_Rep1): 7.84%
percent parasite growth at 2 µg/mL ([2]; T. gondii, screen at 2 μg/mL, replicate 2, read-out: Tg_72h_%Growth_Rep2): 1.95%
activity at 2 µg/mL ([3]; 3D7, P. falciparum, 120 h, screen at 2 μg/mL, replicate 1, read-out: Pf_120h_%Growth_Rep1): 1.73%
activity at 2 µg/mL ([3]; 3D7, P. falciparum, 120 h, screen at 2 μg/mL, replicate 2, read-out: Pf_120h_%Growth_Rep2): 0.69%
